Results published in US7989422B2, “Antibacterial agents” (Alchemia Limited, priority 2005, dated 2011).

What was measured:
Type in all cases: cell-based
[1] = test system: Enterococcus faecalis ATCC 29212; experiment: MIC against E. faecalis, microbroth dilution; details: MIC class
Method: (§1) Testing was conducted to determine the in vitro antimicrobial activity of a series of compounds synthesised by Alchemia Pty Ltd. The antimicrobial activity of each compound was determined at a single concentration (128 μg/mL) in Mueller Hinton (MH) broth against the ATCC type strain of Staphylococcus aureus. […] Compounds showing activity at concentrations up to 32-64 μg/mL in the presence/absence of serum were then tested for MIC activity against a standard set of 5 microorganisms comprising of ATCC type strains of MRSA, Enterococcus faecalis, Enterococcus faecium, VRE and Escherichia coli. CLSI (formerly NCCLS) microbroth dilution technique was used.
(§2) Each compound is initially dissolved in 100 μL of DMSO. Each solution is then diluted further in 0.9 mL of sterile MH broth to give a total volume of 1 mL (1000 μg/mL) This stock solution is then further diluted in MH broth to give a test solution with final concentration of 128 μg/mL using the following formula: 0.5 ml stock in 3.4 ml MH broth
(§3) Each test organism was subcultured from the −70° C. deep freezer onto horse blood agar. The plates were streaked to obtain isolated colonies and incubated at 35° C. in non-CO2 incubator for 24 hours. A second subculture was carried out onto horse blood agar. For each test organism, 1-2 colonies were selected from an 18-24 hour culture and inoculated into 2 ml sterile MH broth. The turbidity was adjusted to 0.5 McFarland standard.
(§4) A 1:10 dilution in MH broth (200 μL in 2 ml MH) of the 0.5 McFarland control was prepared. 5 μL of this diluted solution was used to inoculate the trays.
(§5) The trays were prepared in a similar way as mentioned above and incubated at 35° C. in a non-CO2 incubator for 18-24 hours. The plates were examined for growth after the incubation time.
(§6) After 18-24 hour incubation 5 μL from each well was then inoculated onto horse blood agar and incubated for 18-24 hours at 35° C. in a non-CO2 incubator.
(§7) If the test organism is sensitive to the compound in the broth the growth will be inhibited. Similarly, if the organism grows on the antibiotic containing medium then it is resistant to this particular antibiotic.

[2] = test system: Staphylococcus aureus ATCC 25923; experiment: MIC against S. aureus, microbroth dilution in MH broth, without or with 5% horse serum; details: MIC class; S. aureus ATCC 25923
Method: as §1, §2, §3, §4
100 μL of sterile MH broth was added in columns 2-12. 200 μL of test solution was added in column 1. 100 μL was transferred in column 2 giving a ½ dilution. 100 μL from column 2 was then transferred to column 3 (¼ dilution). This dilution was carried on until column 12. A second tray containing the same test solution was inoculated in a similar manner using sterile MH broth with 5% heat inactivated horse serum. 5 μL of organism solution was then added to each well. The plates were then sealed and incubated at 35° C. in a non-CO2 incubator for 18-24 hours. The plates were examined for growth after the incubation time.
as §7

[3] = test system: Enterococcus faecium ATCC 35667; experiment: MIC against E. faecium, microbroth dilution; details: MIC class
Method: as §1, §2, §3, §4, §5, §6, §7

[4] = test system: Staphylococcus aureus (MRSA) ATCC 33591; experiment: MIC against MRSA, microbroth dilution; details: MIC class
Method: as §1, §2, §3, §4, §5, §6, §7

E. Faecium 51299 VanB = experiment: MIC against vancomycin-resistant enterococcus 51299 (VanB), microbroth dilution; details: MIC class; ATCC 51299 VanB
Method: as §1, §2, §3, §4, §5, §6, §7

Compound	E. Fecalis 29212 activity [1]	S. Aureus 25923 activity [2]	E. Faecium 35667 activity [3]	S. Aureus 33591 MRSA activity [4]	E. Faecium 51299 VanB activity (E. Faecium 51299 VanB)
O=C(Nc1ccc(Cl)c(C(F)(F)F)c1)NC1COC(CO)C(n2c(NCc3cccc(Oc4ccccc4)c3)nc3cc(C(F)(F)F)ccc32)C1O (stereo not drawn) [Compound 249]	++ (“++”: MIC (μg/mL): MIC ≦ 16)	++ (“++”: MIC (μg/mL): MIC ≦ 16)	++ (“++”: MIC (μg/mL): MIC ≦ 16)	++ (“++”: MIC (μg/mL): MIC ≦ 16)	++ (“++”: MIC (μg/mL): MIC ≦ 16)
Nc1ccccc1OC1C(NC(=O)Nc2ccc(Cl)c(C(F)(F)F)c2)COC(CO)C1NC(=O)C(N)Cc1ccc(-c2ccccc2)cc1 (single isomer, unassigned) [Compound 70]	+ (“+”: MIC (μg/mL): 64 ≧ MIC > 16)	+ (“+”: MIC (μg/mL): 64 ≧ MIC > 16)	+ (“+”: MIC (μg/mL): 64 ≧ MIC > 16)	++ (“++”: MIC (μg/mL): MIC ≦ 16)	− (“−”: MIC (μg/mL): MIC > 64)
Nc1nc2cc(C(F)(F)F)cc(Cl)c2n1C1COC(CO)C(NC(=O)C(N)Cc2ccc(-c3ccccc3)cc2)C1O (stereo not drawn) [Compound 163]	+ (“+”: MIC (μg/mL): 64 ≧ MIC > 16)	+ (“+”: MIC (μg/mL): 64 ≧ MIC > 16)	− (“−”: MIC (μg/mL): MIC > 64)	+ (“+”: MIC (μg/mL): 64 ≧ MIC > 16)	− (“−”: MIC (μg/mL): MIC > 64)
CCCCCCCCCCNC1C(CO)OCC(NC(=O)Nc2ccc(Cl)c(C(F)(F)F)c2)C1O (stereo not drawn) [Compound 50]	+ (“+”: MIC (μg/mL): 64 ≧ MIC > 16)	+ (“+”: MIC (μg/mL): 64 ≧ MIC > 16)	+ (“+”: MIC (μg/mL): 64 ≧ MIC > 16)	+ (“+”: MIC (μg/mL): 64 ≧ MIC > 16)	− (“−”: MIC (μg/mL): MIC > 64)
NC(CC(=O)Nc1nc2cc(C(F)(F)F)ccc2n1C1C(CO)OCC(NS(=O)(=O)c2ccc(C(F)(F)F)cc2)C1O)c1ccc(-c2ccccc2)cc1 (stereo not drawn) [Compound 242]	++ (“++”: MIC (μg/mL): MIC ≦ 16)	++ (“++”: MIC (μg/mL): MIC ≦ 16)	++ (“++”: MIC (μg/mL): MIC ≦ 16)	++ (“++”: MIC (μg/mL): MIC ≦ 16)	− (“−”: MIC (μg/mL): MIC > 64)
Nc1cc(C(F)(F)F)cc(Cl)c1NC1COC(CO)C(NC(=O)C(N)Cc2ccc(-c3ccccc3)cc2)C1O (stereo not drawn) [Compound 202]	− (“−”: MIC (μg/mL): MIC > 64)	+ (“+”: MIC (μg/mL): 64 ≧ MIC > 16)	+ (“+”: MIC (μg/mL): 64 ≧ MIC > 16)	+ (“+”: MIC (μg/mL): 64 ≧ MIC > 16)	− (“−”: MIC (μg/mL): MIC > 64)
CCCCCCCCCCCCC(N)C(=O)NC1C(CO)OCC(n2c(S)nc3cc(C(F)(F)F)ccc32)C1O (stereo not drawn) [Compound 182]	++ (“++”: MIC (μg/mL): MIC ≦ 16)	++ (“++”: MIC (μg/mL): MIC ≦ 16)	++ (“++”: MIC (μg/mL): MIC ≦ 16)	++ (“++”: MIC (μg/mL): MIC ≦ 16)	++ (“++”: MIC (μg/mL): MIC ≦ 16)
NC(Cc1ccc(-c2ccccc2)cc1)C(=O)Nc1nc2cc(C(F)(F)F)ccc2n1C1C(CO)OCC(NS(=O)(=O)c2ccc(C(F)(F)F)cc2)C1O (stereo not drawn) [Compound 241]	++ (“++”: MIC (μg/mL): MIC ≦ 16)	++ (“++”: MIC (μg/mL): MIC ≦ 16)	++ (“++”: MIC (μg/mL): MIC ≦ 16)	++ (“++”: MIC (μg/mL): MIC ≦ 16)	+ (“+”: MIC (μg/mL): 64 ≧ MIC > 16)
O=C(Nc1ccc(Cl)c(C(F)(F)F)c1)NC1COC(CO)C(n2c(Nc3ccc(Cl)cc3)nc3cc(C(F)(F)F)cc(Cl)c32)C1O (stereo not drawn) [Compound 252]	+ (“+”: MIC (μg/mL): 64 ≧ MIC > 16)	+ (“+”: MIC (μg/mL): 64 ≧ MIC > 16)	− (“−”: MIC (μg/mL): MIC > 64)	− (“−”: MIC (μg/mL): MIC > 64)	− (“−”: MIC (μg/mL): MIC > 64)
CCCCCCCCCCCCC(N)C(=O)NC1C(CO)OCC(Nc2ccc(C(F)(F)F)cc2N)C1O (stereo not drawn) [Compound 207]	+ (“+”: MIC (μg/mL): 64 ≧ MIC > 16)	+ (“+”: MIC (μg/mL): 64 ≧ MIC > 16)	+ (“+”: MIC (μg/mL): 64 ≧ MIC > 16)	+ (“+”: MIC (μg/mL): 64 ≧ MIC > 16)	+ (“+”: MIC (μg/mL): 64 ≧ MIC > 16)
CCCCCC(C)CCC(=O)NC1C(CO)OCC(n2c(N)nc3cc(C(F)(F)F)cc(Cl)c32)C1O (stereo not drawn) [Compound 179]	− (“−”: MIC (μg/mL): MIC > 64)	+ (“+”: MIC (μg/mL): 64 ≧ MIC > 16)	− (“−”: MIC (μg/mL): MIC > 64)	− (“−”: MIC (μg/mL): MIC > 64)	− (“−”: MIC (μg/mL): MIC > 64)
CCCCCCCCCCCCC(N)C(=O)NC1C(CO)OCC(n2c(N)nc3cc(C(F)(F)F)ccc32)C1O (stereo not drawn) [Compound 183]	− (“−”: MIC (μg/mL): MIC > 64)	+ (“+”: MIC (μg/mL): 64 ≧ MIC > 16)	++ (“++”: MIC (μg/mL): MIC ≦ 16)	− (“−”: MIC (μg/mL): MIC > 64)	− (“−”: MIC (μg/mL): MIC > 64)
CCCCCC(C)CCC(=O)NC1C(CO)OCC(n2c(S)nc3cc(C(F)(F)F)cc(Cl)c32)C1O (stereo not drawn) [Compound 178]	− (“−”: MIC (μg/mL): MIC > 64)	+ (“+”: MIC (μg/mL): 64 ≧ MIC > 16)	− (“−”: MIC (μg/mL): MIC > 64)	− (“−”: MIC (μg/mL): MIC > 64)	− (“−”: MIC (μg/mL): MIC > 64)
CC(C)(C)c1ccc(CNc2nc3cc(C(F)(F)F)ccc3n2C2C(CO)OCC(NC(=O)Nc3ccc(Cl)c(C(F)(F)F)c3)C2O)cc1 (stereo not drawn) [Compound 248]	++ (“++”: MIC (μg/mL): MIC ≦ 16)	++ (“++”: MIC (μg/mL): MIC ≦ 16)	++ (“++”: MIC (μg/mL): MIC ≦ 16)	++ (“++”: MIC (μg/mL): MIC ≦ 16)	++ (“++”: MIC (μg/mL): MIC ≦ 16)
NC(Cc1ccc(-c2ccccc2)cc1)C(=O)Nc1nc2cc(C(F)(F)F)ccc2n1C1C(CO)OCC(NC(=O)Nc2ccc(Cl)c(C(F)(F)F)c2)C1O (stereo not drawn) [Compound 237]	++ (“++”: MIC (μg/mL): MIC ≦ 16)	− (“−”: MIC (μg/mL): MIC > 64)	− (“−”: MIC (μg/mL): MIC > 64)	++ (“++”: MIC (μg/mL): MIC ≦ 16)	− (“−”: MIC (μg/mL): MIC > 64)
CCCCCCCCCCCCC(N)C(=O)NC1C(CO)OCC(n2c(O)nc3cc(C(F)(F)F)ccc32)C1O (stereo not drawn) [Compound 181]	+ (“+”: MIC (μg/mL): 64 ≧ MIC > 16)	+ (“+”: MIC (μg/mL): 64 ≧ MIC > 16)	+ (“+”: MIC (μg/mL): 64 ≧ MIC > 16)	++ (“++”: MIC (μg/mL): MIC ≦ 16)	+ (“+”: MIC (μg/mL): 64 ≧ MIC > 16)
CCCCCCCCCCCCC(N)C(=O)NC1C(CO)OCC(n2cnc3cc(C(F)(F)F)cc(Cl)c32)C1O (stereo not drawn) [Compound 188]	+ (“+”: MIC (μg/mL): 64 ≧ MIC > 16)	+ (“+”: MIC (μg/mL): 64 ≧ MIC > 16)	− (“−”: MIC (μg/mL): MIC > 64)	+ (“+”: MIC (μg/mL): 64 ≧ MIC > 16)	+ (“+”: MIC (μg/mL): 64 ≧ MIC > 16)
CCCCCCCCCCCCC(N)C(=O)NC1C(CO)OCC(n2c(O)nc3cc(C(F)(F)F)cc(Cl)c32)C1O (stereo not drawn) [Compound 185]	++ (“++”: MIC (μg/mL): MIC ≦ 16)	+ (“+”: MIC (μg/mL): 64 ≧ MIC > 16)	++ (“++”: MIC (μg/mL): MIC ≦ 16)	++ (“++”: MIC (μg/mL): MIC ≦ 16)	+ (“+”: MIC (μg/mL): 64 ≧ MIC > 16)
